Test results: patent US20230017045A1, “PYRIDINE AND PYRIMIDINE CARBOXYLATE HERBICIDES AND METHODS OF USE THEREOF” (Dow AgroSciences LLC, priority 2017, published 2023)

Each compound was assayed on test plant species (assay: Post-emergent herbicidal activity test (greenhouse, foliar spray, visual growth reduction)). Conditions: post-emergence, 336 h, ALOMY: blackgrass (Alopecurus myosuroides), 140 g ai/ha, 14 days after application, read-out: Visual Growth Reduction (%) 14 Days After Application, ALOMY.
Type: in vivo
In short: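 Greenhouse plants at first–second true leaf stage sprayed overhead at 187 L/ha with compound in acetone/water/isopropanol/DMSO/crop oil/X-77 carrier; controls received solvent blank. Injury rated visually after 14 d on a 0–100% scale versus untreated and control plants, converted to growth reduction.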
`COC(=O)c1nc(-c2cc3c(cc2Cl)OCO3)c(Cl)cc1Cl` [F155, Methyl 3,5-dichloro-6-(6-chlorobenzo[d] [1,3]dioxol-5-yl)picolinate] showed a pest or weed control at 140 g/ha of 0 to 29%. Compound `COC(=O)c1nc(-c2cc(F)c(Cl)cc2Cl)ccc1Cl` [F65, Methyl 3-chloro-6-(2,4-dichloro-5-fluorophenyl) picolinate] has a pest or weed control at 140 g/ha of 0 to 29%.

Same assay, conditions: post-emergence, 336 h, AMARE: redroot pigweed (Amaranthus retroflexus), 140 g ai/ha, 14 days after application, read-out: Visual Growth Reduction (%) 14 Days After Application, AMARE
Compound `COC(=O)c1nc(-c2cc3c(cc2Cl)OCO3)c(Cl)cc1Cl` [F155, Methyl 3,5-dichloro-6-(6-chlorobenzo[d] [1,3]dioxol-5-yl)picolinate] has a pest or weed control at 140 g/ha of 60 to 74%. `COC(=O)c1nc(-c2cc(F)c(Cl)cc2Cl)ccc1Cl` [F65, Methyl 3-chloro-6-(2,4-dichloro-5-fluorophenyl) picolinate] showed a pest or weed control at 140 g/ha of 95 to 100%.

Same assay, conditions: post-emergence, 336 h, AVEFA: wild oat (Avena fatua), 140 g ai/ha, 14 days after application, read-out: Visual Growth Reduction (%) 14 Days After Application, AVEFA
For `COC(=O)c1nc(-c2cc3c(cc2Cl)OCO3)c(Cl)cc1Cl` [F155, Methyl 3,5-dichloro-6-(6-chlorobenzo[d] [1,3]dioxol-5-yl)picolinate], the pest or weed control at 140 g/ha was 0 to 29%. With `COC(=O)c1nc(-c2cc(F)c(Cl)cc2Cl)ccc1Cl` [F65, Methyl 3-chloro-6-(2,4-dichloro-5-fluorophenyl) picolinate] the pest or weed control at 140 g/ha was 0 to 29%.

Same assay, conditions: post-emergence, 336 h, CHEAL: lambsquarters (Chenopodium album), 140 g ai/ha, 14 days after application, read-out: Visual Growth Reduction (%) 14 Days After Application, CHEAL
Work on `COC(=O)c1nc(-c2cc3c(cc2Cl)OCO3)c(Cl)cc1Cl` [F155, Methyl 3,5-dichloro-6-(6-chlorobenzo[d] [1,3]dioxol-5-yl)picolinate] yielded a pest or weed control at 140 g/ha of 75 to 84%. In the case of `COC(=O)c1nc(-c2cc(F)c(Cl)cc2Cl)ccc1Cl` [F65, Methyl 3-chloro-6-(2,4-dichloro-5-fluorophenyl) picolinate], the pest or weed control at 140 g/ha is reported as 60 to 74%.

Same assay, conditions: post-emergence, 336 h, CIRAR: canada thistle (Cirsium arvense), 140 g ai/ha, 14 days after application, read-out: Visual Growth Reduction (%) 14 Days After Application, CIRAR
For `COC(=O)c1nc(-c2cc3c(cc2Cl)OCO3)c(Cl)cc1Cl` [F155, Methyl 3,5-dichloro-6-(6-chlorobenzo[d] [1,3]dioxol-5-yl)picolinate], the pest or weed control at 140 g/ha was 0 to 29%. Work on `COC(=O)c1nc(-c2cc(F)c(Cl)cc2Cl)ccc1Cl` [F65, Methyl 3-chloro-6-(2,4-dichloro-5-fluorophenyl) picolinate] yielded a pest or weed control at 140 g/ha of 85 to 94%.

Same assay, conditions: post-emergence, 336 h, CYPES: yellow nutsedge (Cyperus esculentus), 140 g ai/ha, 14 days after application, read-out: Visual Growth Reduction (%) 14 Days After Application, CYPES
In the case of `COC(=O)c1nc(-c2cc3c(cc2Cl)OCO3)c(Cl)cc1Cl` [F155, Methyl 3,5-dichloro-6-(6-chlorobenzo[d] [1,3]dioxol-5-yl)picolinate], the pest or weed control at 140 g/ha is reported as 0 to 29%. Work on `COC(=O)c1nc(-c2cc(F)c(Cl)cc2Cl)ccc1Cl` [F65, Methyl 3-chloro-6-(2,4-dichloro-5-fluorophenyl) picolinate] yielded a pest or weed control at 140 g/ha of 0 to 29%.

Same assay, conditions: post-emergence, 336 h, DIGSA: crabgrass (Digitaria sanguinalis), 140 g ai/ha, 14 days after application, read-out: Visual Growth Reduction (%) 14 Days After Application, DIGSA
Work on `COC(=O)c1nc(-c2cc3c(cc2Cl)OCO3)c(Cl)cc1Cl` [F155, Methyl 3,5-dichloro-6-(6-chlorobenzo[d] [1,3]dioxol-5-yl)picolinate] yielded a pest or weed control at 140 g/ha of 0 to 29%. For `COC(=O)c1nc(-c2cc(F)c(Cl)cc2Cl)ccc1Cl` [F65, Methyl 3-chloro-6-(2,4-dichloro-5-fluorophenyl) picolinate], the pest or weed control at 140 g/ha was 95 to 100%.

Same assay, conditions: post-emergence, 336 h, ECHCG: barnyardgrass (Echinochloa crus-galli), 140 g ai/ha, 14 days after application, read-out: Visual Growth Reduction (%) 14 Days After Application, ECHCG
Work on `COC(=O)c1nc(-c2cc(Cl)c(C)cc2F)ccc1Cl` [F271, Methyl 3-chloro-6-(5-chloro-2-fluoro-4-methylphenyl) picolinate] yielded a pest or weed control at 140 g/ha of 0 to 29%. Compound `COC(=O)c1nc(-c2cc3c(cc2Cl)OCO3)c(Cl)cc1Cl` [F155, Methyl 3,5-dichloro-6-(6-chlorobenzo[d] [1,3]dioxol-5-yl)picolinate] has a pest or weed control at 140 g/ha of 0 to 29%. For `COC(=O)c1nc(-c2cc(F)c(Cl)cc2Cl)ccc1Cl` [F65, Methyl 3-chloro-6-(2,4-dichloro-5-fluorophenyl) picolinate], the pest or weed control at 140 g/ha was 60 to 74%.

Same assay, conditions: post-emergence, 336 h, IPOHE: ivy-leaf morning glory (Ipomoea hederacea), 140 g ai/ha, 14 days after application, read-out: Visual Growth Reduction (%) 14 Days After Application, IPOHE
For `COC(=O)c1nc(-c2cc(Cl)c(C)cc2F)ccc1Cl` [F271, Methyl 3-chloro-6-(5-chloro-2-fluoro-4-methylphenyl) picolinate], the pest or weed control at 140 g/ha was 0 to 29%. In the case of `COC(=O)c1nc(-c2cc3c(cc2Cl)OCO3)c(Cl)cc1Cl` [F155, Methyl 3,5-dichloro-6-(6-chlorobenzo[d] [1,3]dioxol-5-yl)picolinate], the pest or weed control at 140 g/ha is reported as 0 to 29%. Compound `COC(=O)c1nc(-c2cc(F)c(Cl)cc2Cl)ccc1Cl` [F65, Methyl 3-chloro-6-(2,4-dichloro-5-fluorophenyl) picolinate] has a pest or weed control at 140 g/ha of 95 to 100%.

Same assay, conditions: post-emergence, 336 h, KCHSC: kochia (Bassia scoparia), 140 g ai/ha, 14 days after application, read-out: Visual Growth Reduction (%) 14 Days After Application, KCHSC
`COC(=O)c1nc(-c2cc(Cl)c(C)cc2F)ccc1Cl` [F271, Methyl 3-chloro-6-(5-chloro-2-fluoro-4-methylphenyl) picolinate] gave a pest or weed control at 140 g/ha of 0 to 29%. `COC(=O)c1nc(-c2cc3c(cc2Cl)OCO3)c(Cl)cc1Cl` [F155, Methyl 3,5-dichloro-6-(6-chlorobenzo[d] [1,3]dioxol-5-yl)picolinate] showed a pest or weed control at 140 g/ha of 0 to 29%. `COC(=O)c1nc(-c2cc(F)c(Cl)cc2Cl)ccc1Cl` [F65, Methyl 3-chloro-6-(2,4-dichloro-5-fluorophenyl) picolinate] showed a pest or weed control at 140 g/ha of 0 to 29%.

Same assay, conditions: post-emergence, 336 h, ORYSA: rice (Oryza sativa), 140 g ai/ha, 14 days after application, read-out: Visual Growth Reduction (%) 14 Days After Application, ORYSA
In the case of `COC(=O)c1nc(-c2cc(Cl)c(C)cc2F)ccc1Cl` [F271, Methyl 3-chloro-6-(5-chloro-2-fluoro-4-methylphenyl) picolinate], the pest or weed control at 140 g/ha is reported as 0 to 29%. For `COC(=O)c1nc(-c2cc3c(cc2Cl)OCO3)c(Cl)cc1Cl` [F155, Methyl 3,5-dichloro-6-(6-chlorobenzo[d] [1,3]dioxol-5-yl)picolinate], the pest or weed control at 140 g/ha was 0 to 29%. `COC(=O)c1nc(-c2cc(F)c(Cl)cc2Cl)ccc1Cl` [F65, Methyl 3-chloro-6-(2,4-dichloro-5-fluorophenyl) picolinate] showed a pest or weed control at 140 g/ha of 30 to 44%.

Same assay, conditions: post-emergence, 336 h, SETFA: giant foxtail (Setaria faberi), 140 g ai/ha, 14 days after application, read-out: Visual Growth Reduction (%) 14 Days After Application, SETFA
`COC(=O)c1nc(-c2cc(Cl)c(C)cc2F)ccc1Cl` [F271, Methyl 3-chloro-6-(5-chloro-2-fluoro-4-methylphenyl) picolinate] was tested, and the pest or weed control at 140 g/ha was 0 to 29%. `COC(=O)c1nc(-c2cc3c(cc2Cl)OCO3)c(Cl)cc1Cl` [F155, Methyl 3,5-dichloro-6-(6-chlorobenzo[d] [1,3]dioxol-5-yl)picolinate] showed a pest or weed control at 140 g/ha of 0 to 29%. With `COC(=O)c1nc(-c2cc(F)c(Cl)cc2Cl)ccc1Cl` [F65, Methyl 3-chloro-6-(2,4-dichloro-5-fluorophenyl) picolinate] the pest or weed control at 140 g/ha was 85 to 94%.

Same assay, conditions: post-emergence, 336 h, SORVU: grain sorghum (Sorghum vulgare), 140 g ai/ha, 14 days after application, read-out: Visual Growth Reduction (%) 14 Days After Application, SORVU
`COC(=O)c1nc(-c2cc(Cl)c(C)cc2F)ccc1Cl` [F271, Methyl 3-chloro-6-(5-chloro-2-fluoro-4-methylphenyl) picolinate] was tested, and the pest or weed control at 140 g/ha was 0 to 29%. For `COC(=O)c1nc(-c2cc3c(cc2Cl)OCO3)c(Cl)cc1Cl` [F155, Methyl 3,5-dichloro-6-(6-chlorobenzo[d] [1,3]dioxol-5-yl)picolinate], the pest or weed control at 140 g/ha was 0 to 29%. `COC(=O)c1nc(-c2cc(F)c(Cl)cc2Cl)ccc1Cl` [F65, Methyl 3-chloro-6-(2,4-dichloro-5-fluorophenyl) picolinate] was tested, and the pest or weed control at 140 g/ha was 60 to 74%.

Same assay, conditions: post-emergence, 336 h, STEME: common chickweed (Stellaria media), 140 g ai/ha, 14 days after application, read-out: Visual Growth Reduction (%) 14 Days After Application, STEME
With `COC(=O)c1nc(-c2cc(Cl)c(C)cc2F)ccc1Cl` [F271, Methyl 3-chloro-6-(5-chloro-2-fluoro-4-methylphenyl) picolinate] the pest or weed control at 140 g/ha was 0 to 29%. With `COC(=O)c1nc(-c2cc3c(cc2Cl)OCO3)c(Cl)cc1Cl` [F155, Methyl 3,5-dichloro-6-(6-chlorobenzo[d] [1,3]dioxol-5-yl)picolinate] the pest or weed control at 140 g/ha was 0 to 29%. With `COC(=O)c1nc(-c2cc(F)c(Cl)cc2Cl)ccc1Cl` [F65, Methyl 3-chloro-6-(2,4-dichloro-5-fluorophenyl) picolinate] the pest or weed control at 140 g/ha was 0 to 29%.

Same assay, conditions: post-emergence, 336 h, TRZAS: wheat, spring (Triticum aestivum), 140 g ai/ha, 14 days after application, read-out: Visual Growth Reduction (%) 14 Days After Application, TRZAS
Work on `COC(=O)c1nc(-c2cc(Cl)c(C)cc2F)ccc1Cl` [F271, Methyl 3-chloro-6-(5-chloro-2-fluoro-4-methylphenyl) picolinate] yielded a pest or weed control at 140 g/ha of 0 to 29%. In the case of `COC(=O)c1nc(-c2cc3c(cc2Cl)OCO3)c(Cl)cc1Cl` [F155, Methyl 3,5-dichloro-6-(6-chlorobenzo[d] [1,3]dioxol-5-yl)picolinate], the pest or weed control at 140 g/ha is reported as 0 to 29%.

Same assay, conditions: post-emergence, 336 h, blackgrass (Alopecurus myosuroides), 14 Days After Application, 140 g ai/ha, read-out: Visual Growth Reduction (%) ALOMY
`COC(=O)c1nc(-c2cc(Cl)c(C)cc2F)ccc1Cl` [F271, Methyl 3-chloro-6-(5-chloro-2-fluoro-4-methylphenyl) picolinate] was tested, and the pest or weed control at 140 g/ha was 0 to 29%.

Same assay, conditions: post-emergence, 336 h, canada thistle (Cirsium arvense), 14 Days After Application, 140 g ai/ha, read-out: Visual Growth Reduction (%) CIRAR
`COC(=O)c1nc(-c2cc(Cl)c(C)cc2F)ccc1Cl` [F271, Methyl 3-chloro-6-(5-chloro-2-fluoro-4-methylphenyl) picolinate] showed a pest or weed control at 140 g/ha of 0 to 29%.

Same assay, conditions: post-emergence, 336 h, crabgrass (Digitaria sanguinalis), 14 Days After Application, 140 g ai/ha, read-out: Visual Growth Reduction (%) DIGSA
For `COC(=O)c1nc(-c2cc(Cl)c(C)cc2F)ccc1Cl` [F271, Methyl 3-chloro-6-(5-chloro-2-fluoro-4-methylphenyl) picolinate], the pest or weed control at 140 g/ha was 0 to 29%.

Same assay, conditions: post-emergence, 336 h, lambsquarters (Chenopodium album), 14 Days After Application, 140 g ai/ha, read-out: Visual Growth Reduction (%) CHEAL
For `COC(=O)c1nc(-c2cc(Cl)c(C)cc2F)ccc1Cl` [F271, Methyl 3-chloro-6-(5-chloro-2-fluoro-4-methylphenyl) picolinate], the pest or weed control at 140 g/ha was 60 to 74%.

Same assay, conditions: post-emergence, 336 h, redroot pigweed (Amaranthus retroflexus), 14 Days After Application, 140 g ai/ha, read-out: Visual Growth Reduction (%) AMARE
`COC(=O)c1nc(-c2cc(Cl)c(C)cc2F)ccc1Cl` [F271, Methyl 3-chloro-6-(5-chloro-2-fluoro-4-methylphenyl) picolinate] gave a pest or weed control at 140 g/ha of 0 to 29%.

Same assay, conditions: post-emergence, 336 h, wild oat (Avena fatua), 14 Days After Application, 140 g ai/ha, read-out: Visual Growth Reduction (%) AVEFA
In the case of `COC(=O)c1nc(-c2cc(Cl)c(C)cc2F)ccc1Cl` [F271, Methyl 3-chloro-6-(5-chloro-2-fluoro-4-methylphenyl) picolinate], the pest or weed control at 140 g/ha is reported as 0 to 29%.

Same assay, conditions: post-emergence, 336 h, yellow nutsedge (Cyperus esculentus), 14 Days After Application, 140 g ai/ha, read-out: Visual Growth Reduction (%) CYPES
Compound `COC(=O)c1nc(-c2cc(Cl)c(C)cc2F)ccc1Cl` [F271, Methyl 3-chloro-6-(5-chloro-2-fluoro-4-methylphenyl) picolinate] has a pest or weed control at 140 g/ha of 0 to 29%.
